Laboratory results from US12514866B2, “Method for treating cancer” (National Taiwan University, priority 2021, dated 2026).
“Also recorded” adds a separate entry of the source.

Legend:
H1299 lung cancer cells = test: Immunofluorescence imaging of immune synapses between cancer and γδ T cells; type: cell-based, human
Description: (§1) For drug treatment experiments, cells were cultured with 100 nM decitabine (DAC; A3656, Sigma-Aldrich) for three days with daily change of complete medium and drug replenishment, followed by 3 to 4 days of cell recovery in the decitabine-free medium. To block the DAC's effect on immune synapse formation via actin cytoskeleton reorganization, the DAC-pretreated (D3R3) cells were treated with 1 μg/mL cytochalasin B (Cyto B; C6762, Sigma-Aldrich) for 1.5 hours prior to coculture with γδ T cells.
Cancer and γδ T cells were spun down onto poly-L-lysine coated coverslips by using a Cyto-Tek table-top cytofuge at 500 rpm for 5 minutes (Sakura Scientific) before fixation with ice-cold methanol or 4% (w/v) paraformaldehyde in PBS for 10 minutes. The fixed samples were blocked in detergent-free blocking solution [1% normal donkey serum (ab7475, abcam) and 3% BSA in PBS] without membrane permeabilization by detergents. Subsequently, cells were incubated with primary antibodies diluted in the blocking solution for 1 hour in a moist chamber at room temperature and washed with PBS. Labeling of fluorescent secondary antibodies at 1:200 dilution in PBS was carried out in the blocking buffer for 1 hour at room temperature. After PBS washing, cell nuclei were stained with Hoechst 33342 or DAPI (62248, Thermo Fisher Scientific) in PBS. Finally, the samples were washed with PBS and mounted on the slides. All slides were examined under an epifluorescence microscope EVOS FLc (Invitrogen), and the images were analyzed using the ImageJ software. For the visualization of immune synaptic proteins, cells were imaged with a high-resolution confocal microscope (LSM780, Zeiss) with a 63×oil objective and analyzed with the confocal software ZEN (Zeiss).

[1] = system: A549 human lung cancer cells; test: SILAC-based quantitative surface proteomics of decitabine-treated cells; type: cell-based; details: A549, both D3 and D3R3, 100 nM
Description: as §1
(§2) For quantitative mass spectrometry analysis, lung cancer cells were cultured for at least seven cell doublings in SILAC RPMI medium (88365, Thermo Fisher Scientific) supplemented with 10% FBS and heavy isotope-labeled amino acids (L-Lysine 13C6, L-Arginine 13C6) (CLM-2247-H-1, CLM-2265-H-1, Cambridge Isotope Laboratories). DAC-treated cells grown in the regular medium were considered as SILAC light counterparts.
(§3) Cancer cells (around 1.5×10^7 cells) were grown in a 15-cm culture dish and washed with ice-cold PBS (21040CM, Corning) before the labeling. […] The protein concentration of the supernatants was determined using Pierce 660 nm Protein Assay Reagent Kit (22660, Thermo Fisher Scientific) supplemented with Ionic Detergent Compatibility Reagent (22663, Thermo Fisher Scientific). […]

[2] = system: A549, H1299 and CL1-0 human lung cancer cell lines; test: SILAC-based surface proteomics compared across cell lines; details: D3R3, A549, H1299, CL1-0
Description: as §1, §2, §3

A549 lung cancer cells = test: Real-time impedance (ECIS) monitoring of γδ T cell killing; details: low dose
Description: In addition, real-time monitoring of γδ T-mediated killing of cancer cells was performed using the Electric Cell-Substrate Impedance Sensing (ECIS) monitoring system with an 8W10E+ culture chamber (Applied Biophysics). Mock or DAC-treated cancer cells were cultured in the chamber at 37° C. overnight until the cancer cells were fully attached to the bottom of the wells. Following the addition of γδ T cells, the detachment of cancer cells indicating cell death was recorded in real-time using multiple frequency capture with the ECIS software. Relative impendence at the time of γδ T cell addition was used for between-sample normalization.

[3] = DAC D3R3 plus 1 μg/mL Cyto B 1.5 hours

Structure (SMILES)	DAC-induced F-actin clustering and pTyr signaling at immune synapses (H1299 lung cancer cells; [3])	ICAM-1 expression at immune synapses (H1299 lung cancer cells; [3])	DAC effects on width of the synaptic cleft (H1299 lung cancer cells; DAC plus Cyto B)	DAC's enhancing effects on immune synapse formation (H1299 lung cancer cells; DAC plus Cyto B)	Number of proteins with sustained upregulation by at least 1.4-fold [1]	Number of proteins commonly upregulated in all three lung cancer cell lines [2]	Cytotoxicity / cell viability with DAC alone (A549 lung cancer cells)
C=C1[C@@H](C)[C@H]2[C@H](Cc3ccccc3)NC(=O)[C@]23OC(=O)/C=C/[C@H](O)CCC[C@@H](C)C/C=C/[C@H]3[C@@H]1O [cytochalasin B]	abolished	minimal effects	diminished	significantly counteracted	–	–	–
Nc1ncn([C@H]2C[C@H](O)[C@@H](CO)O2)c(=O)n1 [DAC, decitabine]	–	–	–	–	314	431	does not cause significant cytotoxicity; also recorded: minimal effects on cell viability
